Usually clearance stands for the volume of plasma or blood freed of the substance per unit of time. As a reminder, the AUC(0-inf) is total exposure, with the tail of the curve extrapolated. Usually AUC(0-t) stands for exposure summed from dosing to a finite time, without extrapolation to infinity. One may read the Cmax as the maximum level reached in the sampled fluid or tissue. For orientation: half-life means how long it takes for the measured level to halve. For orientation: Tmax means the time from dosing to the highest level. One may read the bioavailability as dose-corrected exposure relative to a reference, in per cent. For orientation: IC50 means the point on the concentration scale where inhibition reaches its midpoint. The low end stands for greater potency, the high end for weaker potency. By AUC is commonly meant the area under the concentration-time curve, a measure of exposure.

One series has as its system PI3K isoforms. Nature of the series: HTRF biochemical assay, fold selectivity between PI3K isoforms. Conditions: isoform selectivity. From the text: (§1) Fold form selectivity inhibition data against PI3K isoforms, as determined using a HTRF biochemical assay, is listed below.
On the technique in general: Time-resolved FRET reads energy transfer from a long-lived donor to a nearby acceptor.

Series [1] is described as follows: Rodent pharmacokinetics, male Balb/c mouse, plasma PK. It counts as in vivo. Conditions: for clearance: male, Balb/c, mouse, iv; for clearance / AUC(0-inf) / AUC(0-t) / Cmax / half-life / Vd / Tmax / bioavailability: plasma; for Vd: read-out: Vss. The protocol:
Animals in Group 1 were administered intravenously with Example B solution formulation in 20% Propylene Glycol, 50% of PEG 400 and 30% of (20% HPβCD in water) via tail vein at a dose of 3 mg/kg.
Animals in Group 2 were administered with oral solution formulation of Example B in 20% Propylene Glycol, 50% of PEG 400 and 30% of (20% HPβCD in water) at a dose of 10 mg/kg;
Dosing: 10 mg/kg P.O. and 3 mg/kg I.V.
Animals in Group 1 were administered intravenously with Example G solution formulation in 5% NMP, 5% solutol HS-15 in 90% HPβCD solution (20% HPβCD in RO water) at 3 mg/kg dose.
Animals in Group 2 were administered orally with 10 mg/kg solution formulation of Example G in 5% NMP, 5% solutol HS-15 in 90% HPβCD solution (20% HPβCD in RO water)

The next series concerns the target PI3K p110β (Homo sapiens, UniProt P42338). Nature of the series: HTRF biochemical assay, PI3K p110β.
Excerpt: as §1

The target of the next series is PI3K p110γ (Homo sapiens, UniProt P48736). Nature of the series: HTRF biochemical assay, PI3K p110γ.
Excerpt: as §1

A further series concerns the target PI3K p110α (Homo sapiens, UniProt P42336). Nature of the series: HTRF biochemical assay, PI3K p110α.
Excerpt: as §1

The target of the next series is PI3K p110δ (Homo sapiens, UniProt O00329). Nature of the series: HTRF biochemical assay, PI3K p110δ.
Excerpt: as §1

Series [2] is described as follows: Rodent pharmacokinetics, male CD1 mouse, plasma PK. It counts as in vivo. Conditions: for clearance / AUC / AUC(0-inf) / AUC(0-t) / Cmax / Vd / half-life: male, CD1, mouse. Here is the method: Formulation: 10% DMSO, 90% Saline Dosing: 10 mg/kg P.O. and 5 mg/kg I.V. Plasma PK Summary:
Formulation: 10% DMSO, 90% Saline
Dosing: 10 mg/kg P.O. and 5 mg/kg I.V.

The mark [3] stands for this setting: oral, 10 mg/kg P.O. and 3 mg/kg I.V., read-out: Oral bioavailability (F).
[4] abbreviates: po, 10 mg/kg, summary table, unit inferred, read-out: Oral Bioavailability (F).
Where [5] appears, read: plasma, iv, 5 mg/kg, 5 mg/kg I.V., summary.
Where [6] appears, read: plasma, iv, 5 mg/kg, Mesylate Salt.
[7] abbreviates: plasma, po, 10 mg/kg, Mesylate Salt.
[8] abbreviates: plasma, IV, 5 mg/kg, Mesylate Salt, read-out: Tmax.
[9] abbreviates: plasma, PO, 10 mg/kg, Mesylate Salt, read-out: Tmax.
The mark [10] stands for this setting: plasma, oral, 10 mg/kg P.O. and 5 mg/kg I.V., rounded summary in text, read-out: Oral bioavailability (F).
Setting [11] is: plasma, po, 10 mg/kg, summary table, unit inferred, read-out: Oral Bioavailability (F).

PI3K p110α, sequence (P42336 whole entry): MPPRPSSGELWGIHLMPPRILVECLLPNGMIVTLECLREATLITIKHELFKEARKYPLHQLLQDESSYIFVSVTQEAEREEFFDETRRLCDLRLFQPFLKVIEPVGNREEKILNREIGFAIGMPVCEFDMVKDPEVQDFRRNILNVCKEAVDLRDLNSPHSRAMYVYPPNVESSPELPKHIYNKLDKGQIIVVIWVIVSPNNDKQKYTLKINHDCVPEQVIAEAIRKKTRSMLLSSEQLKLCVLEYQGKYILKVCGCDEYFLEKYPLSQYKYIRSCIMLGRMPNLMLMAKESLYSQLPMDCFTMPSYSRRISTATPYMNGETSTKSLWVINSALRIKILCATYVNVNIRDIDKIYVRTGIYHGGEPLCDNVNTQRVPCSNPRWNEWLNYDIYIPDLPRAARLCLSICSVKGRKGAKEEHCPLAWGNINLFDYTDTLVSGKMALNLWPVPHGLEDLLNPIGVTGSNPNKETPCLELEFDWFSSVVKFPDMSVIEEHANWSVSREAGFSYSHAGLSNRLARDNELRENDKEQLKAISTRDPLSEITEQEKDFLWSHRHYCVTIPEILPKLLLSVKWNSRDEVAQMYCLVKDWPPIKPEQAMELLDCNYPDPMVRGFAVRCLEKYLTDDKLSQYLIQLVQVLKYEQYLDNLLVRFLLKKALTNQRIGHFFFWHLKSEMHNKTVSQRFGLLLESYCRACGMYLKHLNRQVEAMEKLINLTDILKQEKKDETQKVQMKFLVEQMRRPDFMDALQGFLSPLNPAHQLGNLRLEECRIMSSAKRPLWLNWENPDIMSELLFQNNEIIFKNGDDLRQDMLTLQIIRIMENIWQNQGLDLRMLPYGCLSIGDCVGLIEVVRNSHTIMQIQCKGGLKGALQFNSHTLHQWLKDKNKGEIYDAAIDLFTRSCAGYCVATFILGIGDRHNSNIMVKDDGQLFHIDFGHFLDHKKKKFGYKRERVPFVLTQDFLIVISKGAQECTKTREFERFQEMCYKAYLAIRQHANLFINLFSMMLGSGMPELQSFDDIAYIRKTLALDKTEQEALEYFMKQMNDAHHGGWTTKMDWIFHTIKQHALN
PI3K p110α, sequence (P27986 whole entry partner): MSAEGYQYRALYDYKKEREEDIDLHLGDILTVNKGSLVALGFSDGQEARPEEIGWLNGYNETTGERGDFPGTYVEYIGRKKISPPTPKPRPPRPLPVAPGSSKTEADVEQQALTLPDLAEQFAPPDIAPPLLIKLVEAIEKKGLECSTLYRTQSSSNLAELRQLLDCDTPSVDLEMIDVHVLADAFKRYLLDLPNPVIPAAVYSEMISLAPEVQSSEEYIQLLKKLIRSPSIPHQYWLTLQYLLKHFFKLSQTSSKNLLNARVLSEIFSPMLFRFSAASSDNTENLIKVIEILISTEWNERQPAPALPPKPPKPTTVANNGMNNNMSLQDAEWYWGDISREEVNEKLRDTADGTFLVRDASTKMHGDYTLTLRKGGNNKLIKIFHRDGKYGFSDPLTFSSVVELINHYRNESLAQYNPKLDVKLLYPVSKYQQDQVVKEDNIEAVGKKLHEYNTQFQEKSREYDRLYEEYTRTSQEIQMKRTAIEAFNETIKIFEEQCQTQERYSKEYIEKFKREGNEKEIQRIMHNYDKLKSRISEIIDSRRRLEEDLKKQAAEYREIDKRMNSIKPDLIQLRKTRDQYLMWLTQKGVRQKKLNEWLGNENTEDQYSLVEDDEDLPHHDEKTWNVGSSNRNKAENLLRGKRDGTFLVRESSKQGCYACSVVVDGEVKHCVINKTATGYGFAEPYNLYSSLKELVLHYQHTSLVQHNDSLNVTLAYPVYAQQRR
PI3K p110β, sequence (P42338 whole entry): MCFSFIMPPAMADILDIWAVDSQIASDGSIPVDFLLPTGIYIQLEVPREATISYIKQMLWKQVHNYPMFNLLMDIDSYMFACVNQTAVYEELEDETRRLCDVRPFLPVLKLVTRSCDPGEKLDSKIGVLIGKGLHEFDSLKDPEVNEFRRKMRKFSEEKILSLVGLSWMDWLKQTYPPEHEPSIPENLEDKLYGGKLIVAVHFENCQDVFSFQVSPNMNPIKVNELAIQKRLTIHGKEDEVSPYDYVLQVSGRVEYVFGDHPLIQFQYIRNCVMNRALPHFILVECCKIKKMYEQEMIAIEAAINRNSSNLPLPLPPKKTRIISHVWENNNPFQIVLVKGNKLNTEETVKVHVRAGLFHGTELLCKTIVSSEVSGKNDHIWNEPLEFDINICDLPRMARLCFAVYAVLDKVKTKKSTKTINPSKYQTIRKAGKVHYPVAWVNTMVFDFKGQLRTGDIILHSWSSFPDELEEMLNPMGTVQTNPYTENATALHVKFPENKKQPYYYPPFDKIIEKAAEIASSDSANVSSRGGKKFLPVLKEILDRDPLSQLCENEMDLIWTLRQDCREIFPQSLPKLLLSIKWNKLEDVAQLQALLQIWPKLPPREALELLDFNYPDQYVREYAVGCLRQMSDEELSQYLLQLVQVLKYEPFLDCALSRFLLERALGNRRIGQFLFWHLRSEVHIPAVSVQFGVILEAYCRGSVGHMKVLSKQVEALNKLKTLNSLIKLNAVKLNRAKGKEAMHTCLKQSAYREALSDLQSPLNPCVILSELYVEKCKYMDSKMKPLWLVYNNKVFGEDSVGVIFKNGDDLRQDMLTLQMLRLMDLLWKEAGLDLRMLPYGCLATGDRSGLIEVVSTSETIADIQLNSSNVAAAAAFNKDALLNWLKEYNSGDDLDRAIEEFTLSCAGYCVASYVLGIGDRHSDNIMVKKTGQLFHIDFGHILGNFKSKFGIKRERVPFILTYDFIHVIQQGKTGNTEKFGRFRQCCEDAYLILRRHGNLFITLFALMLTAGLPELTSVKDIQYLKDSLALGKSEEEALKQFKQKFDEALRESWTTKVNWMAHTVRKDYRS
PI3K p110β, sequence (P27986 whole entry partner): as the sequence (P27986 whole entry partner) above
PI3K p110δ, sequence (O00329 whole entry): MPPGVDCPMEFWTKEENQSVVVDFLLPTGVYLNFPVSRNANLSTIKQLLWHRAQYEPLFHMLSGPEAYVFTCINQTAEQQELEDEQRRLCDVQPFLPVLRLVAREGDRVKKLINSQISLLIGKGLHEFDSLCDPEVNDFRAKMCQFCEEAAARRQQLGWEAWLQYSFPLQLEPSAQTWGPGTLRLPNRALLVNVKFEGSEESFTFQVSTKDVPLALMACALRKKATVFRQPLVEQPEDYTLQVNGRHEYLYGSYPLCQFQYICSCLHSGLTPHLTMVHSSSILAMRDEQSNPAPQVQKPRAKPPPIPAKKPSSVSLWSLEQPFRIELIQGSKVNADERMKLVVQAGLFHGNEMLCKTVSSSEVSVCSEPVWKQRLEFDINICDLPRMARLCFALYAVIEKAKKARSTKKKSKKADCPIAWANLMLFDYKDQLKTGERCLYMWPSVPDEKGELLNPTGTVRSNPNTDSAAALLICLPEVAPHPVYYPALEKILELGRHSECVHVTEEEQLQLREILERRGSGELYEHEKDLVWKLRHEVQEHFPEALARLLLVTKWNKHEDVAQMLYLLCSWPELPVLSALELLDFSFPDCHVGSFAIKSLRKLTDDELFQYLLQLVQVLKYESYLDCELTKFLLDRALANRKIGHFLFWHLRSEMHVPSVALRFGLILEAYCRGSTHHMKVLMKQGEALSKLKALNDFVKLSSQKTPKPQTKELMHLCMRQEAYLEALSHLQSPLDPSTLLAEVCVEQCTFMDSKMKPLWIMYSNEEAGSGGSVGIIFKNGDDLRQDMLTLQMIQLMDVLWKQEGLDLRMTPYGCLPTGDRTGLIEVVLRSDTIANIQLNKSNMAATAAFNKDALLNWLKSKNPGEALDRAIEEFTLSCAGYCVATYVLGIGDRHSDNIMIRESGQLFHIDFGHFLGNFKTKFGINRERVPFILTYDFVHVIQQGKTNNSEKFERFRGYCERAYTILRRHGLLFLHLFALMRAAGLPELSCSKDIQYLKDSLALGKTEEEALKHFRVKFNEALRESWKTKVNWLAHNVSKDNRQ
PI3K p110δ, sequence (P27986 whole entry partner): as the sequence (P27986 whole entry partner) above
PI3K p110γ, sequence (P48736 whole entry): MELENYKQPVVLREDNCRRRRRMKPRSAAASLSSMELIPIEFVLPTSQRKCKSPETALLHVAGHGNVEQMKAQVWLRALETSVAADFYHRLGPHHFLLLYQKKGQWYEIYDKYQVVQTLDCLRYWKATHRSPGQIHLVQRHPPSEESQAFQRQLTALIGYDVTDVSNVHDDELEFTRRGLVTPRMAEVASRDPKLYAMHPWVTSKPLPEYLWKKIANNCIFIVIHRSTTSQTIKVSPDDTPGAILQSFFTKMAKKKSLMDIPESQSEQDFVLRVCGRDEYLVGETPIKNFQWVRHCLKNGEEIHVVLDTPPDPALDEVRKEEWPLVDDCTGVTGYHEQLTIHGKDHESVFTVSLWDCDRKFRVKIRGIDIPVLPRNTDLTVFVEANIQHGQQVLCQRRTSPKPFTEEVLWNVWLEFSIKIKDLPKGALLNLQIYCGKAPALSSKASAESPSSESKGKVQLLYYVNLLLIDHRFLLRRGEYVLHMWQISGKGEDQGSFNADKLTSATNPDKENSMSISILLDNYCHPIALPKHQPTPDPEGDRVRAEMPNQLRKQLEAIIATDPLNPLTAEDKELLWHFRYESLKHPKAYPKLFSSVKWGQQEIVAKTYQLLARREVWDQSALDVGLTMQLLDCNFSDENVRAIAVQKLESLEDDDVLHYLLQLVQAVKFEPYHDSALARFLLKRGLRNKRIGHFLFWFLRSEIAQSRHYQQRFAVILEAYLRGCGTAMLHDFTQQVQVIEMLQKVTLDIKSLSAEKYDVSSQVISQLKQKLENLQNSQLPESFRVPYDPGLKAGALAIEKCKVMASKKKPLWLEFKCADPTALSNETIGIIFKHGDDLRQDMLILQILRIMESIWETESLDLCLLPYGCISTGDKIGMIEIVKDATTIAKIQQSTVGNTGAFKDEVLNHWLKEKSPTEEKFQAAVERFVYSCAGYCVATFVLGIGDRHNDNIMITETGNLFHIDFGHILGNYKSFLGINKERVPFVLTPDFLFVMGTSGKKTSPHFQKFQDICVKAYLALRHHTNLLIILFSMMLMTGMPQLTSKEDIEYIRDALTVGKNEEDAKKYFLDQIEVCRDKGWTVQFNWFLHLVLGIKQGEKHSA

Take `CN1CCC2(CCN(Cc3cnc4oc5c(N6CCOCC6)nc(-c6cccc7[nH]ccc67)nc5c4c3)C2)C1` (centres unmarked) [Example E, 4-(1H-Indol-4-yl)-12-({7-methyl-2,7-diazaspiro[4.4]nonan-2-yl}methyl)-6-(morpholin-4-yl)-8-oxa-3,5,10-triazatricyclo[7.4.0.0^2,7]trideca-1(13),2(7),3,5,9,11-hexaene]: in the series with PI3K isoforms, the “Fold IC50 p110β/p110α” value was “** (** = ≥50x)”, the “Fold IC50 p110β/p110γ” value is recorded as “** (** = ≥50x)”, the “Fold IC50 p110δ/p110α” value is recorded as “** (** = ≥50x)” and the “Fold IC50 p110δ/p110γ” value is “** (** = ≥50x)”.

On to `CN1CCC2(CCN(Cc3cnc4oc5c(N6CCOCC6)nc(-c6cccc7[nH]ccc67)nc5c4c3)CC2)C1` [Example D, 4-(1H-Indol-4-yl)-12-({2-methyl-2,8-diazaspiro[4.5]decan-8-yl}methyl)-6-(morpholin-4-yl)-8-oxa-3,5,10-triazatricyclo[7.4.0.0^2,7]trideca-1(13),2(7),3,5,9,11-hexaene], for which, in the series on PI3K isoforms, the “Fold IC50 p110β/p110α” value was “** (** = ≥50x)”, the “Fold IC50 p110β/p110γ” value is recorded as “** (** = ≥50x)”, the “Fold IC50 p110δ/p110α” value is “** (** = ≥50x)” and the “Fold IC50 p110δ/p110γ” value is given as “** (** = ≥50x)”.

Consider `c1cc(-c2nc(N3CCOCC3)c3oc4ncc(CN5CCC6(CC5)COC6)cc4c3n2)c2cc[nH]c2c1` [Example B, 4-(1H-Indol-4-yl)-6-(morpholin-4-yl)-12-{2-oxa-7-azaspiro[3.5]nonan-7-ylmethyl}-8-oxa-3,5,10-triazatricyclo[7.4.0.027]trideca-1(13),2(7),3,5,9,11-hexaene], for which, in the series with PI3K isoforms, the “Fold IC50 p110β/p110α” value is recorded as “** (** = ≥50x)”, the “Fold IC50 p110β/p110γ” value is listed as “** (** = ≥50x)”, the “Fold IC50 p110δ/p110α” value is given as “** (** = ≥50x)” and the “Fold IC50 p110δ/p110γ” value is given as “** (** = ≥50x)”. In addition, in series [1] (PO, 10 mg/kg, Mesylate Salt), the F turned out to be 74%, the area under the curve AUC(0-inf) was found to be 4100 ng·h/mL, the exposure AUC(0-t) was determined as 3730 ng·h/mL and the Cmax was 780 ng/mL. Besides, the Tmax in series [1] (PO, 10 mg/kg, Mesylate Salt) was found to be 60 min. This molecule also had a clearance in series [1] (3 mg/kg, 3 mg/kg I.V., summary) of 33 mL/min/kg. Also, the clearance in series [1] (3 mg/kg, Mesylate Salt) is 33.1 mL/min/kg. Besides, in series [1] (IV, 3 mg/kg, Mesylate Salt), the AUC(0-inf) was 1510 ng·h/mL, the exposure AUC(0-t) worked out at 1510 ng·h/mL, the peak concentration (Cmax) is 621 ng/mL and the half-life is 73.8 min. In series [1] (IV, 3 mg/kg, Mesylate Salt), the Vd stood at 5.51 L/kg. Besides, the bioavailability in series [1] (setting [3]) came to 74%. For the same molecule, the bioavailability in series [1] (setting [4]) amounted to 74%.

On PI3K p110β, `c1cc(-c2nc(N3CCOCC3)c3oc4ncc(CN5CCC56COC6)cc4c3n2)c2cc[nH]c2c1` [Example G, 4-(1H-indol-4-yl)-6-(morpholin-4-yl)-12-{6-oxa-1-azaspiro[3.3]heptan-1-ylmethyl}-8-oxa-3,5,10-triazatricyclo[7.4.0.0^2,7]trideca-1(13),2(7),3,5,9,11-hexaene] registered a concentration for half-maximal inhibition (IC50) of at most 500 nM. Besides, in series [1] (PO, 10 mg/kg, Mesylate Salt), the F turned out to be 30%, the AUC(0-inf) amounted to 2140 ng·h/mL, the AUC(0-t) worked out at 1890 ng·h/mL and the Cmax came to 833 ng/mL. Further, the Tmax in series [1] (PO, 10 mg/kg, Mesylate Salt) turned out to be 15 min. In series [1] (3 mg/kg, 3 mg/kg I.V., summary), this molecule had a clearance of 26 mL/min/kg. In addition, the clearance in series [1] (3 mg/kg, Mesylate Salt) is 25.8 mL/min/kg. In addition, in series [1] (IV, 3 mg/kg, Mesylate Salt), the AUC(0-inf) is 1940 ng·h/mL, the AUC(0-t) is 1920 ng·h/mL, the Cmax was 2210 ng/mL and the half-life is 35.4 min. Also, the Vd in series [1] (IV, 3 mg/kg, Mesylate Salt) is 1.25 L/kg. For the same molecule, the bioavailability in series [1] (setting [3]) was found to be 30%. For the same molecule, the bioavailability in series [1] (setting [4]) worked out at 30%. The molecule further returned an IC50 on PI3K p110γ of 500 to 1000 nM. The molecule further showed a concentration for half-maximal inhibition (IC50) against PI3K p110α of at most 500 nM. Besides, the IC50 against PI3K p110δ was at most 500 nM.

With `c1cc(-c2nc(N3CCOCC3)c3oc4ncc(CN5CCCCC5)cc4c3n2)c2cc[nH]c2c1` [Example I in WO2011/021038], the time of peak concentration (Tmax) in series [2] (IV, 5 mg/kg, HCl Salt) was 4.8 min; in series [2] (PO, 10 mg/kg, HCl Salt), 60 min; in series [2] (setting [8]), 4.8 min; in series [2] (setting [9]), 60 min. Moreover, the F in series [2] (PO, 10 mg/kg, HCl Salt) stood at 29.6%; in series [2] (PO, 10 mg/kg, Mesylate Salt), 27.8%. The clearance in series [2] (setting [5]) was 66 mL/min/kg; in series [2] (plasma, iv, 5 mg/kg, HCl Salt), 55 mL/min/kg; in series [2] (setting [6]) it was 66.1 mL/min/kg. In addition, the AUC was determined as 1480 ng·h/mL in series [2] (plasma, iv, 5 mg/kg, HCl Salt); 1240 ng·h/mL in series [2] (setting [6]); 849 ng·h/mL in series [2] (plasma, po, 10 mg/kg, HCl Salt); 657 ng·h/mL in series [2] (setting [7]). The area under the curve AUC(0-inf) was found to be 1520 ng·h/mL in series [2] (plasma, iv, 5 mg/kg, HCl Salt); 1260 ng·h/mL in series [2] (setting [6]); 896 ng·h/mL in series [2] (plasma, po, 10 mg/kg, HCl Salt); 700 ng·h/mL in series [2] (setting [7]). In addition, the AUC(0-t) in series [2] (plasma, iv, 5 mg/kg, HCl Salt) is 1480 ng·h/mL; in series [2] (setting [6]), 1240 ng·h/mL; in series [2] (plasma, po, 10 mg/kg, HCl Salt), 849 ng·h/mL; in series [2] (setting [7]), 657 ng·h/mL. In addition, the Cmax in series [2] (plasma, iv, 5 mg/kg, HCl Salt) turned out to be 1710 ng/mL; in series [2] (setting [6]), 1620 ng/mL; in series [2] (plasma, po, 10 mg/kg, HCl Salt), 322 ng/mL; in series [2] (setting [7]), 212 ng/mL. Further, the Vd in series [2] (plasma, iv, 5 mg/kg, HCl Salt) amounted to 10.1 L/kg; in series [2] (setting [6]) it was 4.6 L/kg. In addition, the half-life in series [2] (plasma, iv, 5 mg/kg, HCl Salt) was 456 min; in series [2] (setting [6]) it was 96 min; in series [2] (plasma, po, 10 mg/kg, HCl Salt), 108 min; in series [2] (setting [7]), 114 min. Moreover, the bioavailability in series [2] (setting [10]) and in series [2] (setting [11]) was 28% in each case.

Take `c1cc(-c2nc(N3CCOCC3)c3oc4ncc(CN5C[C@@H]6C[C@H]5CO6)cc4c3n2)c2cc[nH]c2c1` [Example A, 4-(1H-Indol-4-yl)-6-(morpholin-4-yl)-12-[(1S,4S)-2-oxa-5-azabicyclo[2.2.1]heptan-5-ylmethyl]-8-oxa-3,5,10-triazatricyclo[7.4.0.0^2,7]trideca-1(13),2(7),3,5,9,11-hexaene]: the F in series [2] (PO, 10 mg/kg, Mesylate Salt) stood at 73.77%. This molecule also had a clearance in series [2] (setting [5]) of 21 mL/min/kg. In series [2] (setting [6]), the AUC was 3900 ng·h/mL, the area under the curve AUC(0-inf) worked out at 3950 ng·h/mL, the AUC(0-t) amounted to 3900 ng·h/mL and the peak concentration (Cmax) worked out at 2640 ng/mL. Further, in series [2] (setting [6]), the Vd was 2.44 L/kg, the clearance is 21.1 mL/min/kg and the half-life was 78 min. In series [2] (setting [7]), the AUC is 5620 ng·h/mL, the area under the curve AUC(0-inf) amounted to 5820 ng·h/mL, the exposure AUC(0-t) was determined as 5620 ng·h/mL and the maximum concentration (Cmax) came to 1970 ng/mL. Besides, the half-life in series [2] (setting [7]) is 78 min. In addition, in series [2] (setting [8]), the time to peak (Tmax) stood at 4.8 min. In addition, the Tmax in series [2] (setting [9]) was 60 min. Further, the bioavailability in series [2] (setting [10]) stood at 74%. Also, the bioavailability in series [2] (setting [11]) turned out to be 74%.

Source of the values: patent US9981987B2, “Tricyclic heterocyclic compounds as phosphoinositide 3-kinase inhibitors” (Karus Therapeutics Limited, priority 2014, dated 2018).
